Patent publication US20240116877A1, “KIT KINASE INHIBITORS AND METHODS OF USE THEREOF” (Deciphera Pharmaceuticals, LLC, priority 2021, published 2024)
Read-outs that look alike come from different tables or passages of the source.

How the values were obtained:
c-KIT kinase (uKIT) = c-KIT kinase (uKIT) (Homo sapiens (Human), UniProt P10721); experiment: Biochemical Assay for uKIT (coupled pyruvate kinase/lactate dehydrogenase assay); conditions: Inhibition of biochemical activity of uKIT kinase; 1 mM ATP
In short: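 IC50 from percent inhibition of reaction rate over 2-3 h, relative to no-compound and known-inhibitor controls. KIT enzyme (16 nM or 4.36 nM, two sequences) ran with 1 mM ATP and 0.7 mg/mL PE4Y in Tris pH 7.5, 30° C; ATP turnover coupled to NADH loss at 340 nm.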

GIST 430 cells = experiment: GIST 430 Cell Proliferation Assay (resazurin); type: cell-based; conditions: Homo sapiens; GIST430 cell proliferation
In short: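 Five thousand cells per well were exposed to serially diluted compound in complete growth medium for 115 h at 37 degrees Celsius, 5% CO2. Resazurin was then added for a further 5 h, fluorescence read at 540 nm excitation/600 nm emission, and IC50 values calculated.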

Ba/F3 KIT mutant cells = experiment: Ba/F3 mutant KIT Cell Proliferation Assays (resazurin); type: cell-based; conditions: Mus musculus, BaF3
In short: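 IC50 values come from resazurin fluorescence (ex 540, em 600) after 5 h dye exposure, added as a 440 μM solution. Cells were IL-3-independent Ba/F3 expressing mutant KIT from a lentiviral vector, puromycin-selected.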

[1] = Ba/F3 KIT AYdup-V654A mutant cell proliferation, read-out: AYdup-V654A IC50
[2] = Ba/F3 KIT exon11del-V654A mutant cell proliferation, read-out: exon11del-V654A IC50
[3] = Ba/F3 KIT exon11del-Y823D mutant cell proliferation, read-out: exon11del-Y823D IC50
[4] = Ba/F3 KIT AYdup mutant cell proliferation, read-out: AYdup IC50
[5] = Ba/F3 KIT AYdup-D816G mutant cell proliferation, read-out: AYdup-D816G IC50

Chain of c-KIT kinase (uKIT) (P10721 other isoform, or with tags, fused parts or gaps): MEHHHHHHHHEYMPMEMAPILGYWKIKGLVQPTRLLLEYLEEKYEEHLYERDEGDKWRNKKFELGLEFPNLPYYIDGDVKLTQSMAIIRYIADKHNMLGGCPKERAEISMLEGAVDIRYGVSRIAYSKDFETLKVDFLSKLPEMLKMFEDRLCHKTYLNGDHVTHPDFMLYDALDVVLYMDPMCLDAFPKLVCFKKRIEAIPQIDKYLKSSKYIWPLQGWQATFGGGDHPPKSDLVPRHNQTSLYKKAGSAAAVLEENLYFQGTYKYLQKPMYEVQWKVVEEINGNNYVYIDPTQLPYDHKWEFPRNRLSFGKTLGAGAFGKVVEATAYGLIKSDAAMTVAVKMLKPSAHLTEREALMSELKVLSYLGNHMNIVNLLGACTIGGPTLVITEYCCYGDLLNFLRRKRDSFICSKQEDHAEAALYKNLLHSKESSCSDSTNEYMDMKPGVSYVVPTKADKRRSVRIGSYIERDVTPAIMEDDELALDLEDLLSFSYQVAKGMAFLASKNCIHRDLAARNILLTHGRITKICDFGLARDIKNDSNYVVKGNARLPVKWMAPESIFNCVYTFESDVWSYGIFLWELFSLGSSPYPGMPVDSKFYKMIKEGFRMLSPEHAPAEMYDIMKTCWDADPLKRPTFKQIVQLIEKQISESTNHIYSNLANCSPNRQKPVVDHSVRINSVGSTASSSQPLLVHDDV

| SMILES | IC50 (c-KIT kinase (uKIT)) [nM] | IC50 (GIST 430 cells) [nM] | IC50 (Ba/F3 KIT mutant cells; [1]) [nM] | IC50 (Ba/F3 KIT mutant cells; [2]) [nM] | IC50 (Ba/F3 KIT mutant cells; [3]) [nM] | IC50 (Ba/F3 KIT mutant cells; [4]) [nM] | IC50 (Ba/F3 KIT mutant cells; [5]) [nM] |
| --- | --- | --- | --- | --- | --- | --- | --- |
| COCCOc1cc(F)c2c(Nc3ccc(NC(=O)CC(=O)N4CCCC(C)(C)C4)cc3)ncnc2c1 [Example 166] | 10 to 100 | 10 to 100 | 10 to 100 | 10 to 100 | 10 to 100 |  |  |
| COCCOc1cc(F)c2c(Nc3ccc(NC(=O)NCCOC(C)(C)C)cc3)ncnc2c1 [Example 38] | 10 to 100 | ≤ 10 | 10 to 100 | ≤ 10 | ≤ 10 | ≤ 10 | ≤ 10 |
| COCCOc1cc(F)c2c(Nc3ccc(NC(=O)CC4CCC(C)(C)CC4)cc3)ncnc2c1 [Example 69] | ≤ 10 | ≤ 10 | 10 to 100 | 10 to 100 | 10 to 100 | 10 to 100 | ≤ 10 |
| COCCOc1cc(F)c2c(Nc3ccc(NC(=O)NCCC4CC4)cc3)ncnc2c1 [Example 19] | ≤ 10 | 10 to 100 | ≤ 10 | 10 to 100 | 100 to 1000 | ≤ 10 | ≤ 10 |
| CN1CC[C@@H](Oc2cc(F)c3c(Nc4ccc(NC(=O)NCCC(C)(C)F)cc4)ncnc3c2)C1 [Example 173] | ≤ 10 | 10 to 100 | 10 to 100 | 10 to 100 | 10 to 100 |  |  |
| COCCOc1cc(F)c2c(Nc3ccc(NC(=O)CC(=O)NC4CC(F)(F)C4)cc3)ncnc2c1 [Example 113] | 10 to 100 | 10 to 100 | 10 to 100 | 10 to 100 | 100 to 1000 |  |  |
| COCCOc1cc(F)c2c(Nc3ccc(NC(=O)CC(=O)N4CCC(F)(F)CC4)cc3)ncnc2c1 [Example 164] | 10 to 100 | 10 to 100 | 100 to 1000 | 100 to 1000 | 100 to 1000 |  |  |
| COCCOc1cc(F)c2c(Nc3ccc(NC(=O)CC(=O)N4CCCC[C@@H]4C(F)(F)F)cc3)ncnc2c1 [Example 170] | 10 to 100 | 10 to 100 | 10 to 100 | 10 to 100 | 10 to 100 |  |  |
| COCCOc1cc(F)c2c(Nc3ccc(NC(=O)CC(=O)N4CCC[C@H]4C)cc3)ncnc2c1 [Example 197] | 10 to 100 | 10 to 100 | 10 to 100 | 100 to 1000 | 100 to 1000 |  |  |
| COCCOc1cc(F)c2c(Nc3ccc(NC(=O)C(=O)NCC(C)(C)C)cc3)ncnc2c1 [Example 126] | 100 to 1000 | 100 to 1000 | 100 to 1000 | 100 to 1000 | > 1000 |  |  |
| CC(C)(C#N)CCNC(=O)Nc1ccc(Nc2ncnc3cc(OCCN4CCOCC4)cc(F)c23)cc1 [Example 104] | ≤ 10 | ≤ 10 | 10 to 100 | ≤ 10 | ≤ 10 | ≤ 10 | ≤ 10 |
| COCCOc1cc(F)c2c(Nc3ccc(NC(=O)COCC4CC4)cc3)ncnc2c1 [Example 57] | 100 to 1000 | 10 to 100 | 100 to 1000 | 10 to 100 | > 1000 |  |  |
| COCCOc1cc(F)c2c(Nc3ccc(NC(=O)CC(=O)NCCN4CCOCC4)cc3)ncnc2c1 [Example 84] | > 1000 | > 1000 |  | 100 to 1000 |  |  |  |
| COCCOc1cc(F)c2c(Nc3ccc(NC(=O)CC(=O)N[C@H]4C[C@@H](OC)C4)cc3)ncnc2c1 [Example 116] | 100 to 1000 | 100 to 1000 | 100 to 1000 | 10 to 100 |  |  |  |
| CC(C)(F)CCNC(=O)Nc1ccc(Nc2ncnc3cc(OC[C@@H]4CCOC4)cc(F)c23)cc1 [Example 149] | ≤ 10 | 10 to 100 | 10 to 100 | 10 to 100 | 10 to 100 |  |  |
| COCCOc1cc(F)c2c(Nc3ccc(NC(=O)CC(=O)N4CCCCC4)cc3)ncnc2c1 [Example 187] | 100 to 1000 | 100 to 1000 | 100 to 1000 | > 1000 | > 1000 |  |  |
| COCCOc1cc(F)c2c(Nc3ccc(NC(=O)CC(=O)N4C[C@@H](C)O[C@@H](C)C4)cc3)ncnc2c1 [Example 179] | 100 to 1000 | 100 to 1000 | 100 to 1000 | 100 to 1000 | 100 to 1000 |  |  |
| COCCOc1cc(F)c2c(Nc3ccc(NC(=O)CCC4CCOCC4)cc3)ncnc2c1 [Example 63] | 10 to 100 | 10 to 100 | 100 to 1000 | 10 to 100 | > 1000 |  |  |
| COCCOc1cc(F)c2c(Nc3ccc(NC(=O)CCCC(C)C)cc3)ncnc2c1 [Example 31] | ≤ 10 | 10 to 100 | 10 to 100 | 10 to 100 | 100 to 1000 | 10 to 100 | ≤ 10 |
| COCCOc1cc(F)c2c(Nc3ccc(NC(=O)N[C@H]4CC[C@@H](C(F)(F)F)CC4)cc3)ncnc2c1 [Example 36] | ≤ 10 | 10 to 100 | 10 to 100 | ≤ 10 | 100 to 1000 |  | 10 to 100 |
| COCCOc1cc(F)c2c(Nc3ccc(NC(=O)CCN4CCCC4=O)cc3)ncnc2c1 [Example 53] | > 1000 | 100 to 1000 | > 1000 | > 1000 |  | 100 to 1000 | > 1000 |
| COCCOc1cc(F)c2c(Nc3ccc(NC(=O)NCCC(C)C)cc3)ncnc2c1 [Example 18] | ≤ 10 | 10 to 100 | ≤ 10 | ≤ 10 | 10 to 100 | ≤ 10 | ≤ 10 |
| COCCOc1cc(F)c2c(Nc3ccc(NC(=O)C4(C(=O)N(C)CC(C)(C)C)CC4)cc3)ncnc2c1 [Example 50] | 100 to 1000 | 100 to 1000 | 100 to 1000 | > 1000 | > 1000 | 100 to 1000 | > 1000 |
| CCN(CC)C(=O)CC(=O)Nc1ccc(Nc2ncnc3cc(OCCOC)cc(F)c23)cc1 [Example 184] | 10 to 100 | 10 to 100 | ≤ 10 | 100 to 1000 | 100 to 1000 |  |  |
| COCCOc1cc(F)c2c(Nc3ccc(NC(=O)NC(=O)CC4(C(F)(F)F)COC4)cc3)ncnc2c1 [Example 137] | 10 to 100 | 10 to 100 | 10 to 100 | 10 to 100 | > 1000 |  |  |
| COCCOc1cc(F)c2c(Nc3ccc(NC(=O)NCCC4(C#N)CC4)cc3)ncnc2c1 [Example 35] | ≤ 10 | 10 to 100 | 10 to 100 | 10 to 100 | 10 to 100 | ≤ 10 | 10 to 100 |
| COCCOc1cc(F)c2c(Nc3ccc(NC(=O)COCC4CCCC4)cc3)ncnc2c1 [Example 56] | ≤ 10 | ≤ 10 | 10 to 100 | 10 to 100 | 10 to 100 |  |  |
